From patent US20050208496A1, “Methods of testing for bronchial asthma or chronic obstructive pulmonary disease” (Genox Research, Inc., priority 2002, published 2005)

Tested on: Balb/c mice
Experiment: OVA antigen-exposed bronchial hypersensitivity mouse model, respiratory constriction caused by acetylcholine
Format: in vivo
Details: 5 mg/kg orally
Protocol: 50 μg OVA and 1 mg aluminum hydroxide (an adjuvant) were injected into the peritoneal cavity of Balb/c mice (male, seven-week old), and after 10 days the mice was sensitized with OVA under the same conditions. Then, after 10 days, 1% OVA was given by inhalation using the Ultra-nebulizer model UN701 (Azwell (Co., Ltd.)) for 30 minutes every four days three times in total. Enhanced bronchial hypersensitivity was monitored by detecting the respiratory constriction caused by acetylcholine (6.25-2000 μg/kg) using an artificial respirator (model 131, New England Medical Instruments Inc.) 24 hours after the final antigen inhalation (Nagai H. et al, Int Arch Allergy Immunol; 108: 189-195, 1995). Bronchial hypersensitivity can be induced by this treatment.

For C[C@]12C=CC(=O)C=C1CC[C@@H]1[C@@H]2[C@@H](O)C[C@@]2(C)[C@H]1CC[C@]2(O)C(=O)CO [Prednisolone], the “development of bronchial hypersensitivity” value was “suppressed”.
